Common to all, as to format: cell-based
The test system of one test is Fusarium graminearum. Kind of test: microbe, parasite or virus in culture. To be noted: read-out: median effective concentration (EC50), mycelium growth inhibitory activity.
The test system of a further test is Sclerotinia sclerotirum. The experiment in a line: microbe, parasite or virus in culture. Particulars: read-out: median effective concentration (EC50), mycelium growth inhibitory activity.
The subject of a further test is Cochliobolus miyabeanus. The experiment in a line: Antifungal activity test, mycelium growth inhibition on PDA medium. Particulars: Bipolaris oryzae, read-out: median effective concentration (EC50), mycelium growth inhibitory activity.
The test system of another test is Botrytis cinerea. The experiment in a line: microbe, parasite or virus in culture. Particulars: read-out: median effective concentration (EC50), mycelium growth inhibitory activity.
In test [1] the test system is Botryosphaeria berengeriana.

These results are taken from patent US20260206763A1, “AMIDE COMPOUNDS OR SALTS THEREOF, BACTERICIDAL AGENTS FOR AGRICULTURE AND HORTICULTURE CONTAINING SAID COMPOUNDS, AND METHOD OF USING SAME” (NIHON NOHYAKU CO., LTD., priority 2022, published 2026).

Take `CC(C)(C)c1ccc(C2(C(=O)N3CCc4cccnc4C3)CC2(Cl)Cl)cc1` (centres unmarked) [I-A-371]: the EC50 in the test on Fusarium graminearum, in the test with Sclerotinia sclerotirum and in the test on Cochliobolus miyabeanus was no more than 200 µg/mL in each case.

As to `Cc1ccc(CNC(=O)C2(c3ccc(S(=O)(=O)c4ccccc4)cc3)CC2(Cl)Cl)[n+]([O-])c1` (centres unmarked) [I-A-280], the EC50 with Fusarium graminearum, with Sclerotinia sclerotirum and with Cochliobolus miyabeanus was no more than 200 µg/mL in each case.

On to `Cc1ccc(CNC(=O)C2(c3ccc(C4=CCCCC4)cc3)CC2(Cl)Cl)nc1` (centres unmarked) [I-A-268], for which the EC50 with Botrytis cinerea, in the test with Fusarium graminearum, in the test on Sclerotinia sclerotirum and with Cochliobolus miyabeanus was no more than 200 µg/mL each time.

On to `Cc1ccc(CNC(=O)C2(c3ccc(I)cc3)CC2(Cl)Cl)nc1` (centres unmarked) [I-A-257], for which the EC50 in the test with Botrytis cinerea, in the test on Fusarium graminearum, in the test with Sclerotinia sclerotirum and in the test on Cochliobolus miyabeanus was no more than 200 µg/mL in each case.

For `O=C(NCc1ccccn1)C1(c2ccc(-c3noc(C(F)(F)F)n3)cc2)CC1(Cl)Cl` (centres unmarked) [I-A-132], the EC50 in the test on Botrytis cinerea, with Fusarium graminearum, with Sclerotinia sclerotirum and in the test with Cochliobolus miyabeanus was no more than 200 µg/mL each time.

For `Cc1ccc(CNC(=O)C2(c3ccc(-c4ccccc4F)cc3)CC2(Cl)Cl)nc1` (centres unmarked) [I-A-261], the EC50 with Botrytis cinerea, with Fusarium graminearum, in the test on Sclerotinia sclerotirum and in the test with Cochliobolus miyabeanus was no more than 200 µg/mL in each case.

As to `Cc1ccc(CNC(=O)C2(c3ccc(Oc4nc5ccccc5s4)cc3)CC2(Cl)Cl)nc1` (centres unmarked) [I-A-288], the EC50 with Botrytis cinerea, with Fusarium graminearum, in the test with Sclerotinia sclerotirum and in the test with Cochliobolus miyabeanus was no more than 200 µg/mL throughout.

For the compound `O=C(NCc1ccccn1)C1(c2ccc(C(F)(F)F)cc2)CC1(Cl)Cl` (centres unmarked) [I-A-36], the “median effective concentration (EC50), spore germination inhibitory activity” value in test [1] is given as no more than 200 ppm.

On to `Cc1ccc(CNC(=O)C2(c3ccc(C4=CCCC4)cc3)CC2(Cl)Cl)nc1` (centres unmarked) [I-A-267], for which the EC50 with Botrytis cinerea, with Fusarium graminearum, in the test with Sclerotinia sclerotirum and with Cochliobolus miyabeanus was no more than 200 µg/mL throughout.

For the compound `O=C(NCc1ccccn1)C1(c2ccc(N=C(c3ccccc3)c3ccccc3)cc2)CC1(Cl)Cl` (centres unmarked) [I-A-159], the EC50 with Botrytis cinerea, in the test with Sclerotinia sclerotirum and with Cochliobolus miyabeanus was no more than 200 µg/mL each time.

Consider `O=C1c2ccccc2COc2ccc(C3(C(=O)NCc4ccccn4)CC3(Cl)Cl)cc21` (centres unmarked) [I-A-78], for which the EC50 in the test with Botrytis cinerea, with Sclerotinia sclerotirum and with Cochliobolus miyabeanus was no more than 200 µg/mL in each case.

With `CC(C)(C)c1ccc(C2(C(=O)NCc3ccccn3)CC2(Cl)Cl)cc1` (centres unmarked) [I-A-101], the EC50 in the test with Botrytis cinerea, with Fusarium graminearum, in the test on Sclerotinia sclerotirum and with Cochliobolus miyabeanus was no more than 200 µg/mL each time.
